Assay results as given in patent publication US20250235562A1, “USE OF SECOND NEAR-INFRARED ORGANIC FLUORESCENT COMPOUND IN PREPARATION OF BIOIMAGING CONTRAST AGENT AND IN VASCULAR FLUORESCENCE IMAGING” (INNER MONGOLIA UNIVERSITY, priority 2024, published 2025).

Experiment: Photostability test under continuous white light irradiation
Type: physicochemical
Settings: 50 mW·cm^−2 white light, continuous irradiation 40 min
Method: (3) Photostability test of the nanoimaging agent Y6CT-NPs: commercial imaging agent indocyanine green (ICG) was selected as a reference. Y6CT-NPs and ICG were irradiated continuously by 50 mW·cm^−2 white light (laparoscopic LED cold light source) for 40 min, and the fluorescence intensity of the two were recorded at different time points, a ratio of which to the initial fluorescence intensity was calculated to compare the attenuation degree of fluorescence intensity and photostability between the two.

change of fluorescence intensity after continuous irradiation: decreases significantly
fluorescence intensity at 40 min relative to the initial fluorescence intensity: 30%
Compound: CC1(C)C(/C=C/C=C/C=C/C=C2\N(CCCCS(=O)(=O)O)c3ccc4ccccc4c3C2(C)C)=[N+](CCCCS(=O)(=O)[O-])c2ccc3ccccc3c21 [ICG, indocyanine green]
